Results on one molecule are retold here after PMC4172587 (2014).

In assay [1] the test system is poly(dA-dT).poly(dA-dT) (DNA, polymer) AT. The experiment in a line: UV melting, 260 nm. The settings on record: Na+ (citrate-phosphate 15 mM); 15 mM CP buffer pH 6.8; 20 µM polymer; harmalol at saturation (rmax); per base.
For assay [2], the system named is poly(dA).poly(dT) (DNA, polymer) A/T. In words: UV melting, 260 nm. The note with it: Na+ (citrate-phosphate 15 mM); 15 mM CP buffer pH 6.8; 20 µM polymer; harmalol at saturation (rmax); per base.
Assay [3] has as its system poly(dG).poly(dC) (DNA, polymer) G/C. The experiment in a line: UV melting, 260 nm. The settings on record: Na+ (citrate-phosphate 15 mM); 15 mM CP buffer pH 6.8; 20 µM polymer; harmalol at saturation (rmax); per base.
Assay [4] relates to poly(dG-dC).poly(dG-dC) (DNA, polymer) GC. The experiment in a line: competition dialysis. The settings on record: Na+ (citrate-phosphate 15 mM); apparent; 15 mM CP buffer pH 6.8, 25 °C; 150 µM nucleotide phosphate, 1 µM harmalol; per base.
The test system of assay [5] is poly(dA-dT).poly(dA-dT) (DNA, polymer) AT. In words: competition dialysis. The note with it: Na+ (citrate-phosphate 15 mM); apparent; 15 mM CP buffer pH 6.8, 25 °C; 150 µM nucleotide phosphate, 1 µM harmalol; per base.
In assay [6] the test system is poly(dA).poly(dT) (DNA, polymer) A/T. In words: competition dialysis. The note with it: Na+ (citrate-phosphate 15 mM); apparent; 15 mM CP buffer pH 6.8, 25 °C; 150 µM nucleotide phosphate, 1 µM harmalol; per base.
For assay [7], the system named is poly(dG).poly(dC) (DNA, polymer) G/C. The experiment in a line: competition dialysis. The settings on record: Na+ (citrate-phosphate 15 mM); apparent; 15 mM CP buffer pH 6.8, 25 °C; 150 µM nucleotide phosphate, 1 µM harmalol; per base.
The subject of assay [8] is poly(dG-dC).poly(dG-dC) (DNA, polymer) GC. In words: ITC, polynucleotide titrated into harmalol. The note with it: 15 mM Na+; CP buffer pH 6.8, 25 °C; single-site fit; 20 µM harmalol; per base. For orientation: ITC needs no label: the signal is the heat of the interaction.
The test system of assay [9] is poly(dA-dT).poly(dA-dT) (DNA, polymer) AT. The experiment in a line: ITC, polynucleotide titrated into harmalol. The settings on record: 15 mM Na+; CP buffer pH 6.8, 25 °C; single-site fit; text b28 prints 0.40±0.02×10^5, Table 3 agrees with 0.44×10^6; per base.
Assay [10] deals with poly(dA).poly(dT) (DNA, polymer) A/T. In words: ITC, polynucleotide titrated into harmalol. The note with it: 15 mM Na+; CP buffer pH 6.8, 25 °C; single-site fit; 20 µM harmalol; per base.
For assay [11], the system named is poly(dG).poly(dC) (DNA, polymer) G/C. In words: ITC, polynucleotide titrated into harmalol. The note with it: 15 mM Na+; CP buffer pH 6.8, 25 °C; single-site fit; 20 µM harmalol; per base.
Assay [12] deals with poly(dG-dC).poly(dG-dC) (DNA, polymer) GC. The experiment in a line: absorbance titration, Scatchard, McGhee-von Hippel. The note with it: Na+ (citrate-phosphate 15 mM); 15 mM CP buffer pH 6.8, 25 °C; non cooperative; DNA as nucleotide phosphate; per base.
The test system of assay [13] is poly(dA-dT).poly(dA-dT) (DNA, polymer) AT. In words: absorbance titration, Scatchard, McGhee-von Hippel. The note with it: Na+ (citrate-phosphate 15 mM); 15 mM CP buffer pH 6.8, 25 °C; non cooperative; DNA as nucleotide phosphate; per base.
Assay [14] relates to poly(dA).poly(dT) (DNA, polymer) A/T. The experiment in a line: absorbance titration, Scatchard, McGhee-von Hippel. The note with it: Na+ (citrate-phosphate 15 mM); 15 mM CP buffer pH 6.8, 25 °C; cooperative, intrinsic Ki 0.02±0.01 × 10^6, ω 14.0; DNA as nucleotide phosphate; per base.
For assay [15], the system named is poly(dG).poly(dC) (DNA, polymer) G/C. The experiment in a line: absorbance titration, Scatchard, McGhee-von Hippel. The settings on record: Na+ (citrate-phosphate 15 mM); 15 mM CP buffer pH 6.8, 25 °C; cooperative, intrinsic Ki 0.002±0.001 × 10^6, ω 84; DNA as nucleotide phosphate; per base.
Assay [16] deals with poly(dG-dC).poly(dG-dC) (DNA, polymer) GC. The experiment in a line: fluorescence titration, Scatchard, McGhee-von Hippel. The note with it: Na+ (citrate-phosphate 15 mM); 15 mM CP buffer pH 6.8, 25 °C; non cooperative; DNA as nucleotide phosphate; per base.
Assay [17] concerns poly(dA-dT).poly(dA-dT) (DNA, polymer) AT. The description is as above. The note with it: Na+ (citrate-phosphate 15 mM); 15 mM CP buffer pH 6.8, 25 °C; non cooperative; DNA as nucleotide phosphate; per base.
The test system of assay [18] is poly(dA).poly(dT) (DNA, polymer) A/T. Described as above. The settings on record: Na+ (citrate-phosphate 15 mM); 15 mM CP buffer pH 6.8, 25 °C; cooperative, intrinsic constant, ω 20; DNA as nucleotide phosphate; per base.
The test system of assay [19] is poly(dG).poly(dC) (DNA, polymer) G/C. The description is as above. The note with it: Na+ (citrate-phosphate 15 mM); 15 mM CP buffer pH 6.8, 25 °C; cooperative, intrinsic constant, ω 75; DNA as nucleotide phosphate; per base.

The structures appear in SMILES notation.

One may read the ΔTm as the shift of the melting midpoint relative to a reference.

Take `CC1=NCCc2c1[nH]c1cc(O)ccc21`: the ΔTm was 8 °C in [1], 6 °C in assay [2] and 6 °C in [3]. In addition, the Kapp in assay [4] is recorded as 13.10±0.07 × 10^5 M^-1; in [5], 4.56±0.04 × 10^5 M^-1; in [6], 3.39±0.02 × 10^5 M^-1; in [7] it was 2.19±0.01 × 10^5 M^-1. For the same molecule, the Kb in assay [8] is listed as 3.86±0.07 × 10^6 M^-1; in [9] it was 0.44±0.02 × 10^6 M^-1; in assay [10], 0.30±0.02 × 10^6 M^-1; in [11] it was 0.22±0.03 × 10^6 M^-1. For the same molecule, the Ki in [12] is listed as 4.20±0.05 × 10^6 M^-1; in assay [13], 0.43±0.03 × 10^6 M^-1. The Kiω in [14] is 0.28±0.01 × 10^6 M^-1; in assay [15], 0.18±0.01 × 10^6 M^-1. In addition, the Kf in assay [16] is reported as 4.60±0.07 × 10^6 M^-1; in assay [17], 0.45±0.04 × 10^6 M^-1; in [18], 0.015±0.001 × 10^6 M^-1; in [19], 0.002±0.001 × 10^6 M^-1.
